Reference: ChEMBL document CHEMBL1201862, “PubChem BioAssay data set” (2004)
Calls of active or inactive are those of the source.

Tests used:
[1] = target: T1, Low molecular weight phosphotyrosine protein phosphatase (Homo sapiens, UniProt P24666); assay type: functional; settings: read-out: IC50_Mean
T1 sequence (P24666 whole entry): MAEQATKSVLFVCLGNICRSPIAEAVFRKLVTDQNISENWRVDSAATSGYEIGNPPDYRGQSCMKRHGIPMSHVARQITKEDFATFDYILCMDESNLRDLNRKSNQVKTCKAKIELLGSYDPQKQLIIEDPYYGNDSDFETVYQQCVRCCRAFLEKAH

[2] = target: T1, Low molecular weight phosphotyrosine protein phosphatase; assay type: functional; settings: read-out: IC50_Mean; remark: listed apart in the source
Cytochrome P450 2C19 = Cytochrome P450 2C19 (Homo sapiens, UniProt P33261); experiment: Cytochrome panel assay with activity outcomes. Panel member name: p450-cyp2c19 Compounds with AC50 equal or less than 10 uM are considered active; assay type: functional; settings: read-out: AC50
Cytochrome P450 3A4 = Cytochrome P450 3A4 (Homo sapiens, UniProt P08684);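 also: CYP3A4 tested as one member of a cytochrome P450 panel screen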
Cytochrome P450 2C9 = Cytochrome P450 2C9 (Homo sapiens, UniProt P11712)
Caspase-3 = target: T2, Caspase-3 (Homo sapiens, UniProt P42574); assay type: functional;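 also: Dose-response selectivity test against caspase-3 for candidate inhibitors of sentrin-specific proteases (SENPs)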
T2 sequence (P42574 whole entry): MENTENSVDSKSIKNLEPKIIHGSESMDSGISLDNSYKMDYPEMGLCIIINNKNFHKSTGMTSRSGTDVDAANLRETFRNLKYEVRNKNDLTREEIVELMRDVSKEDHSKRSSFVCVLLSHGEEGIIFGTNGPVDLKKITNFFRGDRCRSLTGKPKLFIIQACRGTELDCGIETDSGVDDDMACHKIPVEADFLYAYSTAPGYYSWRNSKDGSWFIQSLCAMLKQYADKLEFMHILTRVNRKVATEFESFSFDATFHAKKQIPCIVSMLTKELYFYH

[3] = target: T3, Sentrin-specific protease 7 (Homo sapiens, UniProt Q9BQF6); assay type: functional;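 also: Luminescence-based dose-response confirmation of ultra-high-throughput screening hits, measuring inhibition of SENP7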
T3 sequence (Q9BQF6 whole entry): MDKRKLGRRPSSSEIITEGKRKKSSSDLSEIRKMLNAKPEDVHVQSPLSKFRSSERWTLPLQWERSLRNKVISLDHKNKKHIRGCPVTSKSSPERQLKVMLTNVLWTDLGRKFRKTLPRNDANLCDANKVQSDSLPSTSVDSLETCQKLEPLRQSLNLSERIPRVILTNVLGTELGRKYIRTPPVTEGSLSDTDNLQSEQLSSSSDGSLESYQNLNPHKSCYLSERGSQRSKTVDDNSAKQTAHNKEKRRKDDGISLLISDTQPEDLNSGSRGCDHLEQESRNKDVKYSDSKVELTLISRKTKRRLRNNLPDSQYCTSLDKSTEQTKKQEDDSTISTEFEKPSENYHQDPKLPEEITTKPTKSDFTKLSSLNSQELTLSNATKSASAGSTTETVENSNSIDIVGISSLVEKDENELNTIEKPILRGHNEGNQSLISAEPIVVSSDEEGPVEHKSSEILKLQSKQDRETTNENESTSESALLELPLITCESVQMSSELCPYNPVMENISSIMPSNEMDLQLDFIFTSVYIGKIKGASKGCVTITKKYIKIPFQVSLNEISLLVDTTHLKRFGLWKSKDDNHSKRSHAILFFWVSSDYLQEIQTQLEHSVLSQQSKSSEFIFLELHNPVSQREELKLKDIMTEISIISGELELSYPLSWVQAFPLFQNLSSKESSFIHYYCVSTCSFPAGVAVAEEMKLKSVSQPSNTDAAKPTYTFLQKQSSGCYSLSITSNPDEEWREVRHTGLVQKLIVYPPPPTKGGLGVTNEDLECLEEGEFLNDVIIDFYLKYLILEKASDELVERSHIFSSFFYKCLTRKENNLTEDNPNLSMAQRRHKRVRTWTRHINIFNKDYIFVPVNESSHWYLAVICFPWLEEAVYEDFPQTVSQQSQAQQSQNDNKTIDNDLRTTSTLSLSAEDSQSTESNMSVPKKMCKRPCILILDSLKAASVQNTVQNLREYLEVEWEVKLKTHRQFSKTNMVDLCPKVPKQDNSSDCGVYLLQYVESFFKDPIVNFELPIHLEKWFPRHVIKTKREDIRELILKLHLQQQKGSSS

[4] = target: T4, Sentrin-specific protease 6 (Homo sapiens, UniProt Q9GZR1); assay type: functional;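 also: Luminescence-based dose-response confirmatory assay of SENP6 inhibition, following up an ultra-high-throughput screen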
T4 sequence (Q9GZR1 whole entry): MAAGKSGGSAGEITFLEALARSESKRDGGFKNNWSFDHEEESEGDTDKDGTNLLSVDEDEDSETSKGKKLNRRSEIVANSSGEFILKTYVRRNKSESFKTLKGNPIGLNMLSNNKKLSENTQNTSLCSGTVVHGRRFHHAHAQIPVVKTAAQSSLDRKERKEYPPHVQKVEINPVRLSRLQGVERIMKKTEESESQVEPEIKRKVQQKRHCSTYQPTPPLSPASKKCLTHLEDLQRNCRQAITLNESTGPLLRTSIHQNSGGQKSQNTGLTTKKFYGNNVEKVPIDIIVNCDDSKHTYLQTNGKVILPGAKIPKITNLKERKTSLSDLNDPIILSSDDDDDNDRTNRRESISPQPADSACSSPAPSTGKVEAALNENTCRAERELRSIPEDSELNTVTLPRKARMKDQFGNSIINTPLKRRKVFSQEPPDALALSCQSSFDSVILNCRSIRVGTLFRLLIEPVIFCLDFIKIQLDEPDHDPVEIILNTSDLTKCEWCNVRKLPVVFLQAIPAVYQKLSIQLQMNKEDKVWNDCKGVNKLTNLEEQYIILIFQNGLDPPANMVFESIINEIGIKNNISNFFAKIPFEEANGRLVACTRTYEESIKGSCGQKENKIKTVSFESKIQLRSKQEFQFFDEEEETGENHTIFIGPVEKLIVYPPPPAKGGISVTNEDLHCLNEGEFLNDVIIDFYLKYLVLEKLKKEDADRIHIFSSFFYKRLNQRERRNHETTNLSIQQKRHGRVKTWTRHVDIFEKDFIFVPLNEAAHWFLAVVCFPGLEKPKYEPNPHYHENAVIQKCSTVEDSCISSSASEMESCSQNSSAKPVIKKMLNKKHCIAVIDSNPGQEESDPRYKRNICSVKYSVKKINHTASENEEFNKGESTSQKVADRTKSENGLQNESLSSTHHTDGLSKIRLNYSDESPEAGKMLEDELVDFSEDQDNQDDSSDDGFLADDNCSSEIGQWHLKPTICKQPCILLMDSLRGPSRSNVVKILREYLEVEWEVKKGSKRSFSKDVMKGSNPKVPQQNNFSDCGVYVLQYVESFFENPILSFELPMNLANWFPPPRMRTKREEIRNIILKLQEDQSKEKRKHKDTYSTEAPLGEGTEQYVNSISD

[5] = target: T5, Sentrin-specific protease 8 (Homo sapiens, UniProt Q96LD8); assay type: functional;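 also: luminescence read-out of SENP8 inhibition, dose-response confirmation following an ultra-high-throughput screen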
T5 sequence (Q96LD8 whole entry): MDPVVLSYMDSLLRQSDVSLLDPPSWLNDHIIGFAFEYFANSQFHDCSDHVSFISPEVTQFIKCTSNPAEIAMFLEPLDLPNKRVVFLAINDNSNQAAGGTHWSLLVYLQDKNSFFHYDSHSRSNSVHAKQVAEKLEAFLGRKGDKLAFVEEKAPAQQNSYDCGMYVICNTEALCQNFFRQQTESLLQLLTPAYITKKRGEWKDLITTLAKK

[6] = target: Adenosylmethionine-8-amino-7-oxononanoate aminotransferase (Mycobacterium tuberculosis, UniProt P9WQ81); experiment: Mycobacterium tuberculosis BioA enzyme inhibitor Measured in Biochemical System Using Plate Reader - 2163-02_Inhibitor_Dose_CherryPick_Activity.; assay type: functional, Mycobacterium tuberculosis UT205
[7] = target: T6, Apoptotic protease-activating factor 1 (Homo sapiens, UniProt O14727); experiment: SAR analysis of small molecule Activators of Apaf-1 in a Fluorescent assay.; assay type: functional; settings: read-out: EC50_Mean;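 also: caspase-3 cleavage of fluorogenic Rh110 DEVD substrate downstream of apoptosome activation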
T6 sequence (O14727 whole entry): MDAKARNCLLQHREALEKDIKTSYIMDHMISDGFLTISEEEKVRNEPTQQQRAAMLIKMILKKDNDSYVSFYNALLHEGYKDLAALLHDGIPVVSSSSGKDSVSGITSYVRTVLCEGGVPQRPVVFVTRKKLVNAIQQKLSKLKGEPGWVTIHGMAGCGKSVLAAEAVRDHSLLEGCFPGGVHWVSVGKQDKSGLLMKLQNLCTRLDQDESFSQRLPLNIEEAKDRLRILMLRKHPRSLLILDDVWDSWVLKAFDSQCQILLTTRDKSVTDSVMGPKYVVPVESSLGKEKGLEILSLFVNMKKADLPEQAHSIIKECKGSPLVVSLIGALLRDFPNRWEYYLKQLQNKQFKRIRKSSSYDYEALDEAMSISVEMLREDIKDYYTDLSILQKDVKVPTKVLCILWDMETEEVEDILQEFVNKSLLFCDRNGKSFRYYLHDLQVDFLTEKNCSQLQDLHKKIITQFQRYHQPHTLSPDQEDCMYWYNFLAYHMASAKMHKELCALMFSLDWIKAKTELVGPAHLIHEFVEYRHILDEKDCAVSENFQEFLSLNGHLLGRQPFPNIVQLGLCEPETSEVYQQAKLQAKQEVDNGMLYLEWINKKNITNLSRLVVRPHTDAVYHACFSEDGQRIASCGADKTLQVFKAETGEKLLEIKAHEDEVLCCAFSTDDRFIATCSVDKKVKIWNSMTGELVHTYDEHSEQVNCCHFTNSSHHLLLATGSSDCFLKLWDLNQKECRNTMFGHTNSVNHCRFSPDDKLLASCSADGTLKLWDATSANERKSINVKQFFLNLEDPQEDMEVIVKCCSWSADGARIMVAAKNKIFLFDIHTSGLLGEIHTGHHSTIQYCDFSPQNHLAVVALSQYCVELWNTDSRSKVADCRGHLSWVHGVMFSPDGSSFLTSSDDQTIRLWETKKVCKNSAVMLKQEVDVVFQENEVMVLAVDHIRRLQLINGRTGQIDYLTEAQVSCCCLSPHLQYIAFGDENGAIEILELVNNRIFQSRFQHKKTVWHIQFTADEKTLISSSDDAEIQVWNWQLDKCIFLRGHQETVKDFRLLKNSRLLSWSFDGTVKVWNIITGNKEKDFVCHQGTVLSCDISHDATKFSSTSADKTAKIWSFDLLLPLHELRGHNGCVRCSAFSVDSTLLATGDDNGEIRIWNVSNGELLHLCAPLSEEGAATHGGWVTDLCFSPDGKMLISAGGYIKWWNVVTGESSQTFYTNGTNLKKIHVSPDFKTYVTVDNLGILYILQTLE

[8] = NIH-3T3 fibroblast cytotoxicity, dose response, cytotoxicity control, cell-based, fluorescence, Alamar Blue, secondary assay (AID 2327); assay type: functional;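 also: NIH-3T3 mouse fibroblasts cultured with fluconazole at 8 µg/mL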
[9] = fluconazole-exposed Candida albicans growth modulators – fluorescence, retest, confirmation (AID 2467); assay type: functional, cell-based
[10] = target: T7, Polyadenylate-binding protein 1 (Homo sapiens, UniProt P11940); experiment: MLLE binding blockers, Cy5 peptide tracer – biochemical, fluorescence polarization, Cy5-PAM2 peptide, secondary, miRNA deadenylation inhibitor project, dose response (AID 602260); assay type: functional; settings: read-out: IC50_Mean
[11] = target: T7, Polyadenylate-binding protein 1; experiment: MLLE domain peptide-binding blockers, IC50 – biochemical, fluorescence polarization, FITC-PAM2 peptide, dose response (AID 602259); assay type: functional; settings: read-out: IC50_Mean
[12] = target: Aryl hydrocarbon receptor (Homo sapiens, UniProt P35869); settings: Potency;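 also: confirmatory quantitative high-throughput screen measuring activation of the AhR signaling pathway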
Chain of Aryl hydrocarbon receptor (P35869 whole entry): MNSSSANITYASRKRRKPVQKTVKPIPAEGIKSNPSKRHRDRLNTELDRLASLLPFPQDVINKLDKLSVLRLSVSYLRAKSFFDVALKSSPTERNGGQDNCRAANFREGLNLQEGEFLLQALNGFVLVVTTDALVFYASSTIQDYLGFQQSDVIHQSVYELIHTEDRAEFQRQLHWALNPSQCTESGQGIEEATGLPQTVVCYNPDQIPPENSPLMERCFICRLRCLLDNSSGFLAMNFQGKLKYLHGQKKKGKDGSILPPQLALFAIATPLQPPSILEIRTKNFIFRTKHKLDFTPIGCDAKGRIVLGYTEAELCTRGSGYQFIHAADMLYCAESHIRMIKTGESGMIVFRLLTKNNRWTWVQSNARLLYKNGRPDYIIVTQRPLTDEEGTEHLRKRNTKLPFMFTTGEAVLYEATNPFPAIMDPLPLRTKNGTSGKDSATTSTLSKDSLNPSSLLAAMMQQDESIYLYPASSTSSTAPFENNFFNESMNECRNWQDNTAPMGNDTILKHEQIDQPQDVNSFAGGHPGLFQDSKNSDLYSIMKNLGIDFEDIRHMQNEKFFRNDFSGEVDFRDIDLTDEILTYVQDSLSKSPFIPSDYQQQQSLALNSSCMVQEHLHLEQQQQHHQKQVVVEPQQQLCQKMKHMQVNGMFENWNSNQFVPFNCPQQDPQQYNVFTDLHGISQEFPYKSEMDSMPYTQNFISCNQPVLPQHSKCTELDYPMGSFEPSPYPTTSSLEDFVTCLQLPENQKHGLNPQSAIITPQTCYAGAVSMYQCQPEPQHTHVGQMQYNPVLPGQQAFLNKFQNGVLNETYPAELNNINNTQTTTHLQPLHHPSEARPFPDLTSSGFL

Chain of Adenosylmethionine-8-amino-7-oxononanoate aminotransferase (P9WQ81 whole entry): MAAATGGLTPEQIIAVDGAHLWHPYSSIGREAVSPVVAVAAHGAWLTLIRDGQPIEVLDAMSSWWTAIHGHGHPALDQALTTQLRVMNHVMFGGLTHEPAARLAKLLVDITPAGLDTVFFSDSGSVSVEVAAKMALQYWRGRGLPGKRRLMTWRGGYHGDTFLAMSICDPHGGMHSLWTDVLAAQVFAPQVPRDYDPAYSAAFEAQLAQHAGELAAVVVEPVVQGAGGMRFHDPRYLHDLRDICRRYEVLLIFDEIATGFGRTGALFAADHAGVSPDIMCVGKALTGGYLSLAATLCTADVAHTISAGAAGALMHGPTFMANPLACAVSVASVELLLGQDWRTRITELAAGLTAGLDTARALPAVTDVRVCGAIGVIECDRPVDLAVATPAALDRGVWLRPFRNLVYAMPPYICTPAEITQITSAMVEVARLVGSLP
T7 sequence (P11940 whole entry, the tested form may be a part): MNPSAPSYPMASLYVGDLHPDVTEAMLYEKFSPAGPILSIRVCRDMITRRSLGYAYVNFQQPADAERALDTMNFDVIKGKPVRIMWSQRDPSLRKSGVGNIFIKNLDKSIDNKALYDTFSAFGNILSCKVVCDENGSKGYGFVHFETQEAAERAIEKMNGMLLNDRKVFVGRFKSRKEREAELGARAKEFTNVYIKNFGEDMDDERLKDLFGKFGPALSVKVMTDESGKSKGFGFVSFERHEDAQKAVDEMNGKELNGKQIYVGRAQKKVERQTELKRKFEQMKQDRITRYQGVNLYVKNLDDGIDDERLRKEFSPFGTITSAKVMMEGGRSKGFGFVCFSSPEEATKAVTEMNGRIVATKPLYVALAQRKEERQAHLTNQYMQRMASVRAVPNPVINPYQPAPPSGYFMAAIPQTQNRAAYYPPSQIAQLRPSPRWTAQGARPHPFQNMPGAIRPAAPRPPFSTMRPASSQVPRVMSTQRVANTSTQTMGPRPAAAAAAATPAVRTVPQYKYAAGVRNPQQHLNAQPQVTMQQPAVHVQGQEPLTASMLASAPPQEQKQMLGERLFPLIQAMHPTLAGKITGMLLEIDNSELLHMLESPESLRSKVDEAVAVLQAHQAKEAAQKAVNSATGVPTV
Chain of Cytochrome P450 3A4 (P08684 whole entry): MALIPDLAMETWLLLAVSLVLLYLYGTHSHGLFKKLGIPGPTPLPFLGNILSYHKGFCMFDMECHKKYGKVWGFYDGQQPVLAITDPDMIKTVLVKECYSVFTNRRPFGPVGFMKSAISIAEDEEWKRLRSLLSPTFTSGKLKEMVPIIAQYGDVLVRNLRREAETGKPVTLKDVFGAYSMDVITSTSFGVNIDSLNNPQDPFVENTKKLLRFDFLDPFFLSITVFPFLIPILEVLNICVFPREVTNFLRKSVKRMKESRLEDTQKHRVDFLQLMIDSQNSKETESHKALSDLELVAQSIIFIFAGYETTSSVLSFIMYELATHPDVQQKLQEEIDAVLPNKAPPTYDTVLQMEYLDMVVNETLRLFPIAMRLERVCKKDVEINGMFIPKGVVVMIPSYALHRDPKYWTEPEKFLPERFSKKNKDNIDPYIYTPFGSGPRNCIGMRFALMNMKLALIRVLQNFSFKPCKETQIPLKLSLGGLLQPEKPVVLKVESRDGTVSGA
Chain of Cytochrome P450 2C19 (P33261 whole entry): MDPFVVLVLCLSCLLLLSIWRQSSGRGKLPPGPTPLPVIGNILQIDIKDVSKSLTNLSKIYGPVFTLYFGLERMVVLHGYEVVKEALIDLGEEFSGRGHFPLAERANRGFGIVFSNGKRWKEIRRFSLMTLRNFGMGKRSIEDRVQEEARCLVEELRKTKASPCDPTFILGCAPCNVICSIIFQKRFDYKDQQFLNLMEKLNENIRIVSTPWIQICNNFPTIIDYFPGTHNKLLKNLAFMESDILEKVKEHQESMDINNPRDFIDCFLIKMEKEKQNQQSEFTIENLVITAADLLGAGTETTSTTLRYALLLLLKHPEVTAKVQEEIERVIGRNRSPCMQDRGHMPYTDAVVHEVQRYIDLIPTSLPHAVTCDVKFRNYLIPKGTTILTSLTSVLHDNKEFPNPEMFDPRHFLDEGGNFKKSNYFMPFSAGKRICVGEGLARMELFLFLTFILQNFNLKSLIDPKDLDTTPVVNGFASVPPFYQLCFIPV
Chain of Cytochrome P450 2C9 (P11712 whole entry): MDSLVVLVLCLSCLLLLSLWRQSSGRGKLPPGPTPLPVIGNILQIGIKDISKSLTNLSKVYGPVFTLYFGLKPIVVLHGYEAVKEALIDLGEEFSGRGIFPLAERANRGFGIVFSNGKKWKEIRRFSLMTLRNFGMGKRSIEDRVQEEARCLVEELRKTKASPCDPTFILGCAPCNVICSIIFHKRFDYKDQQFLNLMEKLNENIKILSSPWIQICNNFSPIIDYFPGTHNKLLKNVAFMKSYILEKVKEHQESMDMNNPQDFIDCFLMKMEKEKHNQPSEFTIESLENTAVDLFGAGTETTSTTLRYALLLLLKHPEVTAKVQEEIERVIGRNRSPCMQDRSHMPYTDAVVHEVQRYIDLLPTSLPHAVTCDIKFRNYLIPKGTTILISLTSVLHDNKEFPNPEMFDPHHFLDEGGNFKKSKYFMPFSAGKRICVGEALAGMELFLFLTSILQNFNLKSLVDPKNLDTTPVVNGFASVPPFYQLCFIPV

## Cc1ccc(-c2nc(NCc3cccnc3)c3ccccc3n2)cc1
[1]
  IC50: 13.7 µM (active)
[2]
  IC50: 8.04 µM (active)

## O=C(Nc1cccc(-c2nc3ncccc3o2)c1)c1sc2ccccc2c1Cl
Cytochrome P450 2C19
  AC50: 0.355 µM (inconclusive)
[2]
  IC50: 3.81 µM (active)
Cytochrome P450 3A4
  AC50: 3.98 µM (inconclusive)
Cytochrome P450 2C9
  AC50: 2 µM (inconclusive)

## O=C(Oc1ccc(OC(=O)N2CCOCC2)cc1)c1ccccc1
Caspase-3
  IC50: 14.8 µM (active)
[3]
  IC50: 14.2 µM (active)
[4]
  IC50: > 100 µM (inactive)
[5]
  IC50: > 100 µM (inactive)

## CC(=O)c1ccc(C(=O)N2CCCC(CCC(=O)N(C)CCc3ccccn3)C2)s1 (centres undefined)
[6]
  AC50: 12.4 µM (active)

## CCOC(=O)c1cnc(SSc2ncc(C(=O)OCC)c(N)n2)nc1N
[1]
  IC50: 14.5 µM (active)

## CCS(=O)(=O)c1ccc2c(c1)NC(=O)C(C)(C(=O)O)O2 (centres undefined)
[7]
  EC50: > 100 µM (inactive)

## COc1ccc(C)cc1NC(=O)CCS(=O)(=O)c1ccc2c(c1)CC(=O)N2C
[7]
  EC50: > 100 µM (inactive)

## O=C(C1CCOCC1)N1CC[C@@H]2[C@H](CO)Nc3ccc(Br)cc3[C@@H]21
[6]
  AC50: 4.43 µM (active)

## Cc1[nH]n(C(N)=S)c(=O)c1/N=N/c1ccc(S(=O)(=O)N2CCCCCC2)cc1
[8]
  EC50: > 160 µM (inactive)
[9]
  EC50: > 38 µM (not active)
Caspase-3
  IC50: 12.9 µM (active)
[3]
  IC50: 9.68 µM (active)
[4]
  IC50: 15.5 µM (active)
[5]
  IC50: 2.52 µM (active)
[10]
  IC50: > 66 µM (inactive)
[11]
  IC50: > 66 µM (inactive)

## COP(=S)(OC)Oc1c(Cl)cc(C)cc1Cl [TOLCOFOS-METHYL]
[12]
  AC50: 79.4 µM (inconclusive)
